Here are results for 32 compounds from patent US8163778B2 (Hoffmann-LA Roche Inc., priority 2007, dated 2012).

Molecules are shown by their SMILES.

The assay has as its target T1, human liver FBPase (Homo sapiens, UniProt P09467).
T1 construct: made in house; host or cells: E. coli
T1 sequence (P09467 2-338 limits assumed): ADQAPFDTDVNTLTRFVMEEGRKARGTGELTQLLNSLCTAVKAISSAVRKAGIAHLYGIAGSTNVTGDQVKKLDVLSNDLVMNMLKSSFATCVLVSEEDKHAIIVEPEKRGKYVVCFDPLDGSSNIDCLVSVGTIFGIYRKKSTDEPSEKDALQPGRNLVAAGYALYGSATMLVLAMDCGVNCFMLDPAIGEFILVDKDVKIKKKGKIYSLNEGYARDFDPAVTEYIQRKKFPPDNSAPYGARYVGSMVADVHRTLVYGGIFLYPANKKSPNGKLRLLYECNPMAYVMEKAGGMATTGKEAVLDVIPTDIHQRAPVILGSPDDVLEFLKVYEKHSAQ
Description: FBPase assay (malachite green phosphate release). Format: biochemical. The conditions noted are these: recombinant human liver FBPase, 50 μM fructose-1,6-bisphosphate. An outline of the steps:
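Recombinant human liver FBPase (E. coli-expressed, heat-treated, purified) reacted with 50 μM fructose-1,6-bisphosphate in pH 7.2 HEPES, 2 mM MgCl2, 1% DMSO, 50 min at room temperature. Released phosphate quantified with malachite green/ammonium molybdate reagent at 620 nm.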
As for `O=C(Nc1cc(Br)cc(NC(=O)NS(=O)(=O)c2cccc(Cl)c2)n1)NS(=O)(=O)c1cccc(Cl)c1` [Compound 67, N,N′-[(4-Bromopyridine-2,6-diyl)bis(iminocarbonyl)]bis(3-chlorobenzenesulfonamide)], the IC50 was 2510 nM.

On to `Cc1csc(S(=O)(=O)NC(=O)Nc2cc(C(F)(F)F)cc(C)n2)c1` [Compound 122, 4-Methyl-N-{[6-methyl-4-(trifluoromethyl)pyridin-2-yl]carbamoyl}thiophene-2-sulfonamide], for which the IC50 worked out at 730 nM.

With `COCCc1sc(S(=O)(=O)NC(=O)Nc2cc(SC)cc(NCCCC(=O)OC)n2)cc1C` [Compound 73, Methyl-4-({6-[({[5-(2-methoxyethyl)-4-methyl-2-thienyl]sulfonyl}carbamoyl)amino]-4-(methylthio)pyridin-2-yl}amino)butanoate], the IC50 was 1740 nM.

Consider `Nc1cc(Br)cc(NC(=O)NS(=O)(=O)c2coc3ccccc23)n1` [Compound 82, N-[(6-Amino-4-bromopyridin-2-yl)carbamoyl]-1-benzofuran-3-sulfonamide], for which the concentration for half-maximal inhibition (IC50) turned out to be 1870 nM.

Consider `Cc1cc(C(F)(F)F)cc(NC(=O)NS(=O)(=O)c2csc(C)c2)n1` [Compound 120, 5-Methyl-N-{[6-methyl-4-(trifluoromethyl)pyridin-2-yl]carbamoyl}thiophene-3-sulfonamide], for which the IC50 turned out to be 831 nM.

`N#CCc1ccc(-c2ccc(S(=O)(=O)NC(=O)Nc3cc(Br)ccn3)s2)cc1` [Compound 65, N-[(4-Bromopyridin-2-yl)carbamoyl]-5-[4-(cyanomethyl)phenyl]thiophene-2-sulfonamide]: the IC50 is 2210 nM.

Turning to `CNC(=O)Nc1cc(OC)cc(NC(=O)NS(=O)(=O)c2cccc(C)c2)n1` [Compound 27, N-({4-Methoxy-6-[(methylcarbamoyl)amino]pyridin-2-yl}carbamoyl)-3-methylbenzenesulfonamide], the 50% inhibitory concentration (IC50) amounted to 351 nM.

Take `CNC(=O)Nc1cc(SC)cc(NC(=O)NS(=O)(=O)c2csc(C)c2)n1` [Compound 16, 5-Methyl-N-({6-[(methylcarbamoyl)amino]-4-(methylthio)pyridin-2-yl}carbamoyl)thiophene-3-sulfonamide]: the concentration for half-maximal inhibition (IC50) was 96 nM.

Turning to `O=C(Nc1cc(Br)cc(NCC(F)F)n1)NS(=O)(=O)c1ccc2c(c1)CCO2` [Compound 47, N-({4-Bromo-6-[(2,2-difluoroethyl)amino]pyridin-2-yl}carbamoyl)-2,3-dihydro-1-benzofuran-5-sulfonamide], the IC50 amounted to 1020 nM.

With `O=C(Nc1cc(Br)ccn1)NS(=O)(=O)c1cccc(Cl)c1` [Compound 55, N-[(4-Bromopyridin-2-yl)carbamoyl]-3-chlorobenzenesulfonamide], the IC50 amounted to 1550 nM.

Take `COCCc1sc(S(=O)(=O)NC(=O)Nc2cc(OC)cc(NC(=O)OC)n2)cc1C` [Compound 61, Methyl-{4-methoxy-6-[({[5-(2-methoxyethyl)-4-methyl-2-thienyl]sulfonyl}carbamoyl)amino]pyridin-2-yl}carbamate]: the IC50 stood at 2070 nM.

As to `CNC(=O)Nc1cc(OC)cc(NC(=O)NS(=O)(=O)c2csc3ccc(OC)cc23)n1` [Compound 5, 5-Methoxy-N-({4-methoxy-6-[(methylcarbamoyl)amino]pyridin-2-yl}carbamoyl)-1-benzothiophene-3-sulfonamide], the IC50 stood at 66 nM.

For the compound `COCCc1sc(S(=O)(=O)NC(=O)Nc2cc(SC)cc(C(N)=NO)n2)cc1C` [Compound 115, N′-Hydroxy-6-[({[5-(2-methoxyethyl)-4-methyl-2-thienyl]sulfonyl}carbamoyl)amino]-4-(methylthio)pyridine-2-carboximidamide], the IC50 turned out to be 2780 nM.

On to `CNC(=O)Nc1cc(OC)cc(NC(=O)NS(=O)(=O)c2cc(C)c(CC(C)C)s2)n1` [Compound 6, 5-Isobutyl-N-({4-methoxy-6-[(methylcarbamoyl)amino]pyridin-2-yl}carbamoyl)-4-methylthiophene-2-sulfonamide], for which the 50% inhibitory concentration (IC50) was found to be 79 nM.

For the compound `COCCc1sc(S(=O)(=O)NC(=O)Nc2cc(C(F)(F)F)cc(-c3ccc(C(F)(F)F)cc3)n2)cc1C` [Compound 42, 5-(2-Methoxyethyl)-4-methyl-N-({4-(trifluoromethyl)-6-[4-(trifluoromethyl)phenyl]pyridin-2-yl}carbamoyl)thiophene-2-sulfonamide], the IC50 was 760 nM.

With `CNC(=O)Nc1cc(SC)cc(NC(=O)NS(=O)(=O)c2cc(C)c(CCOC)s2)n1` [Compound 14, 5-(2-Methoxyethyl)-4-methyl-N-({6-[(methylcarbamoyl)amino]-4-(methylthio)pyridin-2-yl}carbamoyl)thiophene-2-sulfonamide], the IC50 was 167 nM.

For the compound `COC(=O)c1cc(C(F)(F)F)cc(NC(=O)NS(=O)(=O)c2cc(C)c(CCO)s2)n1` [Compound 105, Methyl-6-[({[5-(2-hydroxyethyl)-4-methyl-2-thienyl]sulfonyl}carbamoyl)amino]-4-(trifluoromethyl)pyridine-2-carboxylate], the half-inhibitory concentration (IC50) stood at 2610 nM.

Consider `CSc1cc(N)nc(NC(=O)NS(=O)(=O)c2csc(C)c2)c1` [Compound 43, N-{[6-Amino-4-(methylthio)pyridin-2-yl]carbamoyl}-5-methylthiophene-3-sulfonamide], for which the IC50 was 834 nM.

With `Nc1cc(Br)cc(NC(=O)NS(=O)(=O)c2cccc(Cl)c2)n1` [Compound 28, N-[(6-Amino-4-bromopyridin-2-yl)carbamoyl]-3-chlorobenzenesulfonamide], the concentration for half-maximal inhibition (IC50) is 396 nM.

In the case of `COCCc1sc(S(=O)(=O)NC(=O)Nc2cc(Br)cc(NC(=O)N(C)C)n2)cc1C` [Compound 54, N-({4-Bromo-6-[(dimethylcarbamoyl)amino]pyridin-2-yl}carbamoyl)-5-(2-methoxyethyl)-4-methylthiophene-2-sulfonamide], the IC50 stood at 1520 nM.

As for `CC(=O)OCCc1sc(S(=O)(=O)NC(=O)Nc2cc(C(F)(F)F)cc(Cl)n2)cc1C` [Compound 93, 2-{5-[({[6-chloro-4-(trifluoromethyl)pyridin-2-yl]carbamoyl}amino)sulfonyl]-3-methyl-2-thienyl}ethyl acetate], the IC50 was 844 nM.

For `COCCc1sc(S(=O)(=O)NC(=O)Nc2cc(SC)cc(O)n2)cc1C` [Compound 71, N-{[6-Hydroxy-4-(methylthio)pyridin-2-yl]carbamoyl}-5-(2-methoxyethyl)-4-methylthiophene-2-sulfonamide], the IC50 turned out to be 4030 nM.

As to `COCCc1sc(S(=O)(=O)NC(=O)Nc2cc(C(F)(F)F)cc(N)n2)cc1C` [Compound 85, N-{[6-Amino-4-(trifluoromethyl)pyridin-2-yl]carbamoyl}-5-(2-methoxyethyl)-4-methylthiophene-2-sulfonamide], the 50% inhibitory concentration (IC50) was 756 nM.

In the case of `CNC(=O)Nc1cc(OC)cc(NC(=O)NS(=O)(=O)c2cc3ccc(OC)cc3s2)n1` [Compound 12, 6-Methoxy-N-({4-methoxy-6-[(methylcarbamoyl)amino]pyridin-2-yl}carbamoyl)-1-benzothiophene-2-sulfonamide], the half-inhibitory concentration (IC50) is 132 nM.

For the compound `COCCc1sc(S(=O)(=O)NC(=O)Nc2cc(SC)cc(NCCO)n2)cc1C` [Compound 48, N-({6-[(2-Hydroxyethyl)amino]-4-(methylthio)pyridin-2-yl}carbamoyl)-5-(2-methoxyethyl)-4-methylthiophene-2-sulfonamide], the IC50 came out at 1020 nM.

Turning to `CC(=O)OCCc1sc(S(=O)(=O)NC(=O)Nc2cc(C(F)(F)F)c(F)c(N)n2)cc1C` [Compound 81, 2-{5-[({[6-Amino-5-fluoro-4-(trifluoromethyl)pyridin-2-yl]carbamoyl}amino)sulfonyl]-3-methyl-2-thienyl}ethyl acetate], the IC50 worked out at 665 nM.

For the compound `COCCc1sc(S(=O)(=O)NC(=O)Nc2cc([S+](C)[O-])cc(NC(N)=O)n2)cc1C` (centres unmarked) [Compound 95, N-{[6-(Carbamoylamino)-4-(methylsulfinyl)pyridin-2-yl]carbamoyl}-5-(2-methoxyethyl)-4-methylthiophene-2-sulfonamide], the IC50 is 5080 nM.

With `Cc1cc(S(=O)(=O)NC(=O)Nc2cc(C(F)(F)F)cc(CO)n2)sc1CCO` [Compound 106, 5-(2-Hydroxyethyl)-N-{[6-(hydroxymethyl)-4-(trifluoromethyl)pyridin-2-yl]carbamoyl}-4-methylthiophene-2-sulfonamide], the IC50 came to 1500 nM.

As for `CNC(=O)Nc1cc(C(N)=O)cc(NC(=O)NS(=O)(=O)c2cc(C)c(CCOC)s2)n1` [Compound 101, 2-[({[5-(2-Methoxyethyl)-4-methyl-2-thienyl]sulfonyl}carbamoyl)amino]-6-[(methylcarbamoyl)amino]isonicotinamide], the half-maximal inhibitory concentration (IC50) was greater than 100000 nM.

With `CNC(=O)Nc1cc(C(N)=NO)cc(NC(=O)NS(=O)(=O)c2cc(C)c(CCOC)s2)n1` [Compound 107, N′-Hydroxy-2-[({[5-(2-methoxyethyl)-4-methyl-2-thienyl]sulfonyl}carbamoyl)amino]-6-[(methylcarbamoyl)amino]pyridine-4-carboximidamide], the IC50 was 2550 nM.

In the case of `CNC(=O)Nc1cc(OC)cc(NC(=O)NS(=O)(=O)c2csc(COC)c2)n1` [Compound 29, 5-(Methoxymethyl)-N-({4-methoxy-6-[(methylcarbamoyl)amino]pyridin-2-yl}carbamoyl)thiophene-3-sulfonamide], the IC50 was determined as 420 nM.

Take `CNC(=O)Nc1cc(-c2noc(C)n2)cc(NC(=O)NS(=O)(=O)c2cc(C)c(CCOC)s2)n1` [Compound 109, 5-(2-Methoxyethyl)-4-methyl-N-({6-[(methylcarbamoyl)amino]-4-(5-methyl-1,2,4-oxadiazol-3-yl)pyridin-2-yl}carbamoyl)thiophene-2-sulfonamide]: the concentration for half-maximal inhibition (IC50) turned out to be 1870 nM.
